This is an account of results in US9533952B2, “N-prop-2-ynyl carboxamide derivatives and their use as TRPA1 antagonists” (Orion Corporation, priority 2012, dated 2017).

Sequence of TRPA1 (O75762 whole entry): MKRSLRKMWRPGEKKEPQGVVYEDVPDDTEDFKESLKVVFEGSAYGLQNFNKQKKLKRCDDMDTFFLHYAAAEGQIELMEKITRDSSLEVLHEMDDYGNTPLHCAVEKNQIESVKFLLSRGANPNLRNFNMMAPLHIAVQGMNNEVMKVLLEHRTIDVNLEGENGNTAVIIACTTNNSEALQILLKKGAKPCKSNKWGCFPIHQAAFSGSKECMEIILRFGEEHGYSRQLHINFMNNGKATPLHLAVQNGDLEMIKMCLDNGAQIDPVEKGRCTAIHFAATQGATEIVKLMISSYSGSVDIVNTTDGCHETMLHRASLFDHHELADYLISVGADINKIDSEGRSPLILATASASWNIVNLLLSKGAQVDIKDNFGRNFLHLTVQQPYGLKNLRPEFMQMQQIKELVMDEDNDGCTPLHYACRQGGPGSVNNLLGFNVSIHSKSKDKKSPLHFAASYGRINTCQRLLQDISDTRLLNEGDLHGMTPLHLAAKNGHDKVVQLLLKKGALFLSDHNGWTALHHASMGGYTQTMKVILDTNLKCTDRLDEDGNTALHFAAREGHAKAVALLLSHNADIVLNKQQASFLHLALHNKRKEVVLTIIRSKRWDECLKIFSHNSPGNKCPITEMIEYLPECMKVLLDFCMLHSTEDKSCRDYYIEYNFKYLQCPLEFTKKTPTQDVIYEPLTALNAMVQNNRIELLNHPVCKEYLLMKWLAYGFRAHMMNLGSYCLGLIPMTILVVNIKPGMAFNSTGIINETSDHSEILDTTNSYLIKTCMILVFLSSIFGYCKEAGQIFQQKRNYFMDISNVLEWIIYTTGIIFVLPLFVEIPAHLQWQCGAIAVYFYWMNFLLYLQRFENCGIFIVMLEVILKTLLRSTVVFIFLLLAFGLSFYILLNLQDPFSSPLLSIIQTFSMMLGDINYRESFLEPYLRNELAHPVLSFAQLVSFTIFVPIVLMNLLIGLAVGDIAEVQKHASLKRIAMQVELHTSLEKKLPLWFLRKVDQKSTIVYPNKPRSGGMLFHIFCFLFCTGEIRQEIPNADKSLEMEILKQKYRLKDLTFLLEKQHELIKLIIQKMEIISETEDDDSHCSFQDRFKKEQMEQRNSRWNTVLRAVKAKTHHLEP

The assay addresses TRPA1 (Homo sapiens, UniProt O75762). The assay can be described thus: Determination of TRPA1 activity in vitro (TRPA1 antagonism in vitro). Format: cell-based. To be noted: procedure of Wei et al., Anesthesiology 111 (2009) 147-154.
For `C#CC(C)(C)NC(=O)c1ccc(C(F)(F)F)nc1NC(C)(C)C` [Example 111, 2-(tert-Butylamino)-N-(2-methylbut-3-yn-2-yl)-6-(trifluoromethyl)-nicotinamide], the IC50 is 2.4 µM.

As to `C#CC(C)(C)NC(=O)c1ccc(Cl)nc1NC(C)C` [Example 112, 6-Chloro-2-(isopropylamino)-N-(2-methylbut-3-yn-2-yl)nicotinamide], it took 3.4 µM to reach half-maximal inhibition (IC50). Under `C#CC(C)(C)NC(=O)c1ccc(Cl)nc1NCC` [Example 113, 6-Chloro-2-(ethylamino)-N-(2-methylbut-3-yn-2-yl)nicotinamide] stands 7.2 µM; under `C#CC(C)(C)NC(=O)c1cc(F)c(N2CCOCC2)nc1NC(C)C` [Example 114, 5-Fluoro-2-(isopropylamino)-N-(2-methylbut-3-yn-2-yl)-6-morpholinonicotinamide], 4.3 µM; under `C#CC(C)(C)NC(=O)c1ccc(C(F)(F)F)nc1NC1CCOCC1` [Example 115, N-(2-Methylbut-3-yn-2-yl)-2-(tetrahydro-2H-pyran-4-ylamino)-6-(trifluoromethyl)nicotinamide], 4.8 µM. For the molecule `C#CC(C)(C)NC(=O)c1ccc(C(F)(F)F)nc1NCC1CCOCC1` [Example 116, N-(2-Methylbut-3-yn-2-yl)-2-((tetrahydro-2H-pyran-4-yl)methyl-amino)-6-(trifluoromethyl)nicotinamide], the IC50 amounted to 1.6 µM. This IC50 lies about 3-fold lower than the previous one.

`C#CC(C)(C)NC(=O)c1ccc(C(F)(F)F)nc1NC1CC1` [Example 117, 2-(Cyclopropylamino)-N-(2-methylbut-3-yn-2-yl)-6-(trifluoromethyl)-nicotinamide] yielded an IC50 of 2.3 µM. This IC50 and that of the molecule before are within 1.5-fold of each other.

For `C#CC(C)(C)NC(=O)c1cccc2c(C)c(C)[nH]c12` [Example 118, 2,3-Dimethyl-N-(2-methylbut-3-yn-2-yl)-1H-indole-7-carboxamide], the midpoint of inhibition, the IC50, lay at 12.9 µM. This IC50 lies about 5.6-fold higher than the previous one. The molecule `C#CC(CC)(CC)NC(=O)c1cccc2cc[nH]c12` [Example 119, N-(3-Ethylpent-1-yn-3-yl)-1H-indole-7-carboxamide] had an IC50 of 18.7 µM.

For the molecule `C#CC(CC)(CC)NC(=O)c1cccc2c1NCCC2` [Example 120, N-(3-Ethylpent-1-yn-3-yl)-1,2,3,4-tetrahydroquinoline-8-carboxamide], the IC50 stood at 8.3 µM. `C#CC(C)(C)NC(=O)c1cccnc1Nc1cccc(F)c1` [Example 121, 2-(3-Fluorophenylamino)-N-(2-methylbut-3-yn-2-yl)nicotinamide] displayed an IC50 of 1.1 µM. `C#CC(C)(C)NC(=O)c1cccnc1Nc1ccccc1F` [Example 122, 2-(2-Fluorophenylamino)-N-(2-methylbut-3-yn-2-yl)nicotinamide]: half-maximal inhibition (IC50) required 4.8 µM. In the case of `C#CC(C)(C)NC(=O)c1cccnc1NC1CCC(F)(F)CC1` [Example 123, 2-(4,4-Difluorocyclohexylamino)-N-(2-methylbut-3-yn-2-yl)nicotinamide] it was 3.8 µM. Take `C#CC(C)(C)NC(=O)c1cc(Br)ccc1NCCC` [Example 124, 5-Bromo-NV-(2-methylbut-3-yn-2-yl)-2-(propylamino)benzamide]: the IC50 was 0.5 µM. In turn, `C#CC(C)(C)NC(=O)c1cccnc1NC(C)(C)C(F)(F)F` [Example 125, N-(2-Methylbut-3-yn-2-yl)-2-(1,1,1-trifluoro-2-methylpropan-2-ylamino)nicotinamide] returned an IC50 of 4.6 µM. Against the preceding molecule, the IC50 is about 9.2-fold higher. In the case of `C#CC(C)(C)NC(=O)c1cscc1NCCC` [Example 126, N-(2-Methylbut-3-yn-2-yl)-4-(propylamino)thiophene-3-carboxamide] it was 8 µM; in that of `C#CC(C)(C)NC(=O)c1cccnc1Nc1ccccc1` [Example 127, N-(2-Methylbut-3-yn-2-yl)-2-(phenylamino)nicotinamide], 4.4 µM. In the case of `C#CC(C)(C)NC(=O)c1cc(C(F)(F)F)cnc1NC(C)(C)C` [Example 128, 2-(tert-Butylamino)-N-(2-methylbut-3-yn-2-yl)-5-(trifluoromethyl)-nicotinamide] it was 1.1 µM; in that of `C#CC(C)(C)NC(=O)c1cc(Cl)cnc1Nc1ccccc1` [Example 129, 5-Chloro-N-(2-methylbut-3-yn-2-yl)-2-(phenylamino)nicotinamide], 0.7 µM. In turn, `C#CC(C)(C)NC(=O)c1ccsc1NCCCC` [Example 130, 2-(Butylamino)-N-(2-methylbut-3-yn-2-yl)thiophene-3-carboxamide] came in with an IC50 of 2.1 µM.

`C#CC(C)(C)NC(=O)c1cccnc1Nc1ccc(F)cc1` [Example 131, 2-(4-Fluorophenylamino)-N-(2-methylbut-3-yn-2-yl)nicotinamide] had an IC50 of 1.4 µM. Compared with the last molecule, the IC50 is about 1.5-fold lower.

As for `C#CC(C)(C)NC(=O)c1cncnc1NCC(F)(F)C(F)(F)F` [Example 132, N-(2-Methylbut-3-yn-2-yl)-4-(2,2,3,3,3-pentafluoropropylamino)-pyrimidine-5-carboxamide], the IC50 was 13.8 µM. Compared with the last molecule, the IC50 is about 9.9-fold higher.

`C#CC(C)(C)NC(=O)c1cccnc1NC1CC(F)(F)C1` [Example 133, 2-(3,3-Difluorocyclobutylamino)-N-(2-methylbut-3-yn-2-yl)nicotinamide] displayed an IC50 of 5.9 µM. The molecule `C#CC(C)(C)NC(=O)c1ccncc1Nc1ccc(Cl)cc1` [Example 134, 3-((4-Chlorophenyl)amino)-N-(2-methylbut-3-yn-2-yl)isonicotinamide] yielded an IC50 of 4.3 µM. `C#CC(C)(C)NC(=O)c1cc(F)cc(F)c1NCCC(F)F` [Example 135, 2-(3,3-Difluoropropylamino)-3,5-difluoro-N-(2-methylbut-3-yn-2-yl)benzamide]: 5 µM corresponded to half-maximal inhibition (IC50).

`C#CC(C)(C)NC(=O)c1sccc1NCC(C)C` [Example 136, 3-(Isobutylamino)-N-(2-methylbut-3-yn-2-yl)thiophene-2-carboxamide] displayed a half-inhibitory concentration (IC50) of 8.7 µM. For `C#CC(C)(C)NC(=O)c1cc(F)cnc1Nc1cc(C)ns1` [Example 137, 5-Fluoro-N-(2-methylbut-3-yn-2-yl)-2-(3-methylisothiazol-5-ylamino)nicotinamide], the IC50 came to 9.9 µM. In the case of `C#CC(C)(C)NC(=O)c1cc(Cl)cnc1Nc1cccnc1` [Example 138, 5-Chloro-N-(2-methylbut-3-yn-2-yl)-2-(pyridin-3-ylamino)nicotinamide] it was 12 µM; in that of `C#CC(C)(C)NC(=O)c1cc(Cl)cnc1NC1CC(F)(F)C1` [Example 139, 5-Chloro-2-(3,3-difluorocyclobutylamino)-N-(2-methylbut-3-yn-2-yl)nicotinamide], 0.3 µM; in that of `C#CC(C)(C)NC(=O)c1cc(F)cnc1Nc1ccc(C2CCCC2)nc1` [Example 140, 2-(6-Cyclopentylpyridin-3-ylamino)-5-fluoro-N-(2-methylbut-3-yn-2-yl)nicotinamide], 5.5 µM. `C#CC(C)(C)NC(=O)c1cc(C(F)(F)F)cnc1NC1CC(F)(F)C1` [Example 141, 2-(3,3-Difluorocyclobutylamino)-N-(2-methylbut-3-yn-2-yl)-5-(trifluoromethyl)nicotinamide] came in with an IC50 of 0.3 µM. In the case of `C#CC(C)(C)NC(=O)c1cccnc1NCCc1ccccc1` [Example 142, N-(2-Methylbut-3-yn-2-yl)-2-(phenethylamino)nicotinamide], the midpoint of inhibition, the IC50, lay at 5.8 µM. Take `C#CC(C)(C)NC(=O)c1cccnc1NCCCc1ccccc1` [Example 143, N-(2-Methylbut-3-yn-2-yl)-2-(3-phenylpropylamino)nicotinamide]: it took 3.8 µM to reach half-maximal inhibition (IC50). `C#CC(C)(C)NC(=O)c1cc(F)cnc1NCCCOc1ccc(F)cc1` [Example 144, 5-Fluoro-2-(3-(4-fluorophenoxy)propylamino)-N-(2-methylbut-3-yn-2-yl)nicotinamide]: the IC50 came to 2.6 µM. Molecule `C#CC(C)(C)NC(=O)c1cc(F)cnc1NCCOc1ccc(F)cc1` [Example 145, 5-Fluoro-2-(2-(4-fluorophenoxy)ethylamino)-N-(2-methylbut-3-yn-2-yl)nicotinamide] had an IC50 of 3.3 µM. On to `C#CC(C)(C)NC(=O)c1cc(Cl)cnc1NCCCOCC` [Example 146, 5-Chloro-2-(3-ethoxypropylamino)-N-(2-methylbut-3-yn-2-yl)nicotinamide], for which the IC50 was found to be 5.9 µM. For the molecule `C#CC(C)(C)NC(=O)c1cc(Cl)cnc1NCCOC(C)(C)C` [Example 147, 2-(2-tert-Butoxyethylamino)-5-chloro-N-(2-methylbut-3-yn-2-yl)nicotinamide], the IC50 came to 5.2 µM.

For the molecule `C#CC(C)(C)NC(=O)c1cc(Cl)cnc1NCCOCC` [Example 148, 5-Chloro-2-(2-ethoxyethylamino)-N-(2-methylbut-3-yn-2-yl)nicotinamide], the IC50 is 14.9 µM. Consider `C#CC(C)(C)NC(=O)c1cccnc1Nc1ccc(C)c(F)c1` [Example 149, 2-(3-Fluoro-4-methylphenylamino)-N-(2-methylbut-3-yn-2-yl)nicotinamide], for which the IC50 came out at 0.5 µM.

Molecule `C#CC(C)(C)NC(=O)c1cccnc1Nc1ccc(OC)c(Cl)c1` [Example 150, 2-(3-Chloro-4-methoxyphenylamino)-N-(2-methylbut-3-yn-2-yl)nicotinamide] yielded an IC50 of 1.9 µM. `C#CC(C)(C)NC(=O)c1cccnc1Nc1cc(F)cc(F)c1` [Example 151, 2-(3,5-Difluorophenylamino)-N-(2-methylbut-3-yn-2-yl)nicotinamide] registered an IC50 of 0.5 µM. Against the preceding molecule, the IC50 is about 3.8-fold lower. `C#CC(C)(C)NC(=O)c1cc(C(F)F)cnc1NC1CC(F)(F)C1` [Example 152, 2-(3,3-Difluorocyclobutylamino)-5-(difluoromethyl)-N-(2-methylbut-3-yn-2-yl)nicotinamide] displayed an IC50 of 2.4 µM. The molecule `C#CC(C)(C)NC(=O)c1cc(OCC)ccc1NCCC` [Example 154, 5-Ethoxy-N-(2-methylbut-3-yn-2-yl)-2-(propylamino)benzamide] registered an IC50 of 7.1 µM. Molecule `C#CC(C)(C)NC(=O)c1cc(Cl)cnc1NC(C)(C)C` [Example 155, 2-(tert-Butylamino)-5-chloro-N-(2-methylbut-3-yn-2-yl)nicotinamide] showed an IC50 of 0.8 µM. This IC50 is about 8.9-fold lower than that of the molecule before. Under `C#CC(C)(C)NC(=O)c1cc(F)cnc1NC1CC(F)(F)C1` [Example 156, 2-(3,3-Difluorocyclobutylamino)-5-fluoro-N-(2-methylbut-3-yn-2-yl)nicotinamide] stands 1.6 µM.

Broadly, the IC50 is the midpoint of a concentration-inhibition curve. Low readings indicate greater potency, high ones weaker potency.
